# US20250152718A1, “NUCLEIC ACID DELIVERY MATERIAL” (National University Corporation Tokai National Higher …, priority 2022, published 2025)
# Tested on: HEK293T cells
# Assay: Nucleic acid delivery test (plasmid DNA with GFP gene, quantitative PCR)
# Type: cell-based
# Details: buffered saline HBS, plasmid DNA 4.7 kb with GFP gene, after 48 hours
# Method: Dimethylformamide solutions (10 mmol/L, 1 μL) of the aromatic compounds shown in Tables 1 and 2 were each dissolved in the buffered salines (25 μL) shown in Tables 1 and 2. However, in Comparative Example 2, no aromatic compound was used, and only dimethylformamide was used. The two resulting solutions were mixed and allowed to stand at room temperature for 30 minutes to complex the aromatic compound with the plasmid DNA. Thereafter, 450 μL of the buffered saline used for the complexification and 500 μL of Dulbecco's modified Eagle medium (DMEM, Wako) containing 10% fetal bovine serum were added, and the resulting complex was added to HEK293T cells (mammalian cells). After 48 hours, the amount of nucleic acid was measured by quantitative PCR.
# In Tables 1 to 3, as for the buffered salines, “MEM” means Eagle's minimum essential medium, “TBS” means Tris-buffered saline, “HBS” means HEPES-buffered saline, and “MBS” means MES-buffered saline.
row,Structure (SMILES),Amount of nucleic acid relative comparison with Example 1
1,c1cc(N2CCNCC2)ccc1-c1cc2c(-c3ccc(N4CCNCC4)cc3)cc3c(-c4ccc(N5CCNCC5)cc4)cc4c(-c5ccc(N6CCNCC6)cc5)cc5c(-c6ccc(N7CCNCC7)cc6)cc1c1c5c4c3c21 [KTU205],1.112
2,NCCOc1ccc(-c2cc3c(-c4ccc(OCCN)cc4)cc4c(-c5ccc(OCCN)cc5)cc5c(-c6ccc(OCCN)cc6)cc6c(-c7ccc(OCCN)cc7)cc2c2c6c5c4c32)cc1 [KTU204],0.6309
3,NCCc1ccc(-c2cc3c(-c4ccc(CCN)cc4)cc4c(-c5ccc(CCN)cc5)cc5c(-c6ccc(CCN)cc6)cc6c(-c7ccc(CCN)cc7)cc2c2c6c5c4c32)cc1 [KTU192],0.6727
